Measurements as given in patent US20240300945A1, “CLY SERIES COMPOUND, PREPARATION METHOD THEREFOR AND USE THEREOF IN PREPARATION OF DRUGS” (NANJING WELLBEST PHARMACEUTICAL CO., LTD, priority 2021, published 2024).

Tested on: skin hair follicles and sebaceous glands of rats
Experiment: Rat hair loss model: histopathological grading of skin hair follicles and sebaceous glands
Assay type: in vivo, Wistar rats
Conditions: 60 days, 10 rats per group; for number of rats with hair follicle and sebaceous gland grade +++: grade +++ (most severe); for number of rats with hair follicle and sebaceous gland grade ±: grade ± (lesions limited); for number of rats with hair follicle and sebaceous gland grade −: grade − (normal structure)
From the text: Wistar rats were, according to weights, randomly divided into the negative control group (75% ethanol for external use), model group (75% ethanol for external use), positive control group (external 5% minoxidil tincture), CLY-1 external treatment group (external 5% CLY-1 tincture), CLY-2 external treatment group (external 5% CLY-2 tincture), CLY-3 external treatment group (external 5% CLY-3 tincture), CLY-4 external treatment group (external 5% CLY-4 tincture), and CLY-5 external treatment group (external 5% CLY-5 tincture) according to their body weight CLY-8 external treatment group (external 5% CLY-8 tincture), CLY-11 external treatment group (external 5% CLY-11 tincture), CLY-19 external treatment group (external 5% CLY-19 tincture), CLY-36 external treatment group (external 5% CLY-36 tincture), CLY-39 external treatment group (external 5% CLY-39 tincture), CLY-1 intravenous injection group (2 mg/kg·d), CLY-3 intravenous injection group (2 mg/kg·d), CLY-4 intravenous injection group (2 mg/kg·d) CLY-5 intravenous injection group (2 mg/kg·d), CLY-8 intravenous injection group (2 mg/kg·d), CLY-11 intravenous injection group (2 mg/kg·d), CLY-19 intravenous injection group (2 mg/kg·d), CLY-36 intravenous injection group (2 mg/kg·d), and CLY-39 intravenous injection group (2 mg/kg·d), with 10 rats in each group. Before the experiment, an area of 4 cm×5 cm was selected on each rat on the back of the neck to remove hair as the observation area. In addition to the negative control group, rats were subcutaneously injected with testosterone propionate injection [5 ml/(kg·d)] once a day for 60 days to establish the androgenic alopecia (AGA) model. […] At the same time, the drug was applied to the observation area on the back of the rats in the corresponding drug group at the rate of 2 mL/(one time), twice a day, at an interval of 8 hours; Intravenous administration once a day. The negative control group and the model control group were smeared with 75% ethanol solution, 2 mL/(one rat per time), twice a day, for 60 days.
Took 10 hairs from the observation area on the back of each rat every 15 days after administration, and measured the hair length with a vernier caliper. After 60 days of administration, the skin of the experimental observation area was taken for routine tissue dehydration, paraffin embedding, HE staining, and light microscopy to observe the histopathological changes of the rat skin hair follicles and sebaceous glands. Semi-quantitative analysis was performed for each group. The grading criteria are as follows: the normal structure of dermal tissue cells, subcutaneous hair follicles, and sebaceous glands is marked as […]: no hyperplasia of dermal tissue is found, the lesions of hair follicles and sebaceous glands are limited, and no inflammation is found under the skin is marked as “+”: no obvious hyperplasia of dermal tissue is found, and the follicles are obviously cystic. No obvious hyperplasia of sebaceous glands is found, and no inflammation is found under the skin is marked as “+”: the dermal tissue has segmental hyperplasia, which is not obvious, A small number of hair follicles have cystic changes, and the sebaceous glands have mild hyperplasia and hypertrophy. There is no obvious inflammation under the skin, which is marked as “++”: the dermal tissue cells of the skin have different degrees of segmental hyperplasia, and some hair follicles have cystic changes, showing uneven size of hair follicles, and no cells around. The sebaceous glands have hyperplasia, and the nuclei in the proliferative glands are few. A few rats have mild inflammatory hyperplasia under the skin, which is marked as “+++”.

SMILES | number of rats with hair follicle and sebaceous gland grade +++ (external 5% tincture) | number of rats with hair follicle and sebaceous gland grade +++ (intravenous 2 mg/kg·d) | number of rats with hair follicle and sebaceous gland grade ++ (external 5% tincture) | number of rats with hair follicle and sebaceous gland grade ++ (intravenous 2 mg/kg·d) | number of rats with hair follicle and sebaceous gland grade + (external 5% tincture) | number of rats with hair follicle and sebaceous gland grade + (intravenous 2 mg/kg·d) | number of rats with hair follicle and sebaceous gland grade ± (external 5% tincture) | number of rats with hair follicle and sebaceous gland grade ± (intravenous 2 mg/kg·d) | number of rats with hair follicle and sebaceous gland grade − (external 5% tincture) | number of rats with hair follicle and sebaceous gland grade − (intravenous 2 mg/kg·d)
CNC1CCCC(N(C(=O)c2ccc(-n3nnc4cccnc43)cc2)c2ncccc2Cl)C1 (centres unmarked) [CLY-3] | 0 | 0 | 1 | 1 | 5 | 4 | 4 | 5 | 0 | 0
O=C(c1ccc(-n2nnc3cccnc32)cc1)N(c1ncccc1Cl)C1CCCC(O)C1 (centres unmarked) [CLY-4] | 0 | 0 | 3 | 1 | 4 | 5 | 3 | 4 | 0 | 0
COC1CCCC(N(C(=O)c2ccc(-n3nnc4cccnc43)cc2)c2ncccc2Cl)C1 (centres unmarked) [CLY-5] | 0 | 0 | 0 | 0 | 4 | 2 | 6 | 8 | 0 | 0
NC1CCCC(N(C(=O)c2ccc(-n3nnc4cccnc43)cc2)c2ncccc2Cl)C1 (centres unmarked) [CLY-11] | 0 | 0 | 1 | 1 | 4 | 3 | 5 | 6 | 0 | 0
O=C(c1ccc(-c2ccccc2-c2nnn[nH]2)cc1)N(c1ncccc1Cl)[C@@H]1CCCNC1 [CLY-19] | 0 | 0 | 2 | 2 | 3 | 2 | 5 | 6 | 0 | 0
